Key:
[1] = Phase 2b study of MIN-101 in patients with schizophrenia (negative symptoms, cognitive function, CDSS); type: in vivo, human
Method: The oral dosage forms used in this Phase 2b study were the 32 mg MR tablet described in Example 1 below and an essentially identical 64 mg MR tablet.
Thus, in an aspect, administration of a gastro-resistant CR oral dosage form of the present disclosure to a patient with a diagnosis of schizophrenia is intended to improve cognitive function in the patient.
A secondary outcome of the phase 2b study of MIN-101 discussed above was patients' performance on the Calgary Depression Scale for Schizophrenia (CDSS) ADDINGTON D, ADDINGTON J, MATICKA-TYNDALE E. ASSESSING DEPRESSION IN S CHIZOPHRENIA: THE CALGARY DEPRESSION SCALE. BRITISH JOURNAL OF PSYCHIATRY SUPPLEMENT 1993; (22):39-44. The CDSS has little overlap with positive and negative symptoms and has become the recommended scale to assess the severity of depression in patients with schizophrenia. In the phase 2b study, the severity of symptoms as measured by the CDSS was reduced following treatment with 32 or 64 mg of MIN-101 compared to placebo. […] Thus, since the effects of MIN-101 on negative symptoms and depression symptoms in schizophrenia patients were largely independent of each other, MIN-101 has the potential to alleviate one or more depression symptoms in patients who are not schizophrenic.

[2] = human, in vivo
[3] = as disclosed in U.S. Pat. No. 9,458,130; cited from earlier work

SMILES: Cl.O.O.O=C(CN1CCC(CN2Cc3ccccc3C2=O)CC1)c1ccc(F)cc1 [MIN-101, 1H-Isoindol-1-one, 2-[[1-[2-(4-Fluorophenyl)-2-oxoethyl]-4-piperidinyl]methyl]-2,3-dihydro-, hydrochloride, hydrate (1:1:2)]
- Cognitive function ([1]; phase 2b study): improvement in cognitive function
- Negative symptoms in patients with schizophrenia ([1]; phase 2b, 32 mg and 64 mg MR tablets): rapid, statistically significant and clinically meaningful reductions in negative symptoms
- Severity of depression symptoms as measured by the CDSS ([1]; phase 2b, 32 or 64 mg compared to placebo): reduced
- Plasma levels of BFB-520 in CYP2D6 poor metabolizers [2]: high plasma levels of BFB-520
- QT prolongation in patients [3]: has been observed

Reference: US12048768B2, “Gastro-resistant controlled release oral dosage forms” (Minerva Neurosciences, Inc., priority 2017, dated 2024)
